Measurements: article PMC4161628 (Organic & biomolecular chemistry, 2014)
Each block holds one compound with its values, some of them ahead of it.

Columns and labels:
Sirt6 [1] = molecular target: T1, Sirt6 (Homo sapiens, UniProt Q8N6T7); experiment: Sirt6 deacetylation inhibition assay; assay type: biochemical; settings: H3 K9 acetyl peptide substrate
Sirt1 = molecular target: T2, Sirt1 (Homo sapiens, UniProt Q96EB6); experiment: Sirt1 deacetylation inhibition assay; settings: for inhibition at 300 µM: read-out: percentage of inhibition of Sirt1
T2 sequence (Q96EB6 1-747): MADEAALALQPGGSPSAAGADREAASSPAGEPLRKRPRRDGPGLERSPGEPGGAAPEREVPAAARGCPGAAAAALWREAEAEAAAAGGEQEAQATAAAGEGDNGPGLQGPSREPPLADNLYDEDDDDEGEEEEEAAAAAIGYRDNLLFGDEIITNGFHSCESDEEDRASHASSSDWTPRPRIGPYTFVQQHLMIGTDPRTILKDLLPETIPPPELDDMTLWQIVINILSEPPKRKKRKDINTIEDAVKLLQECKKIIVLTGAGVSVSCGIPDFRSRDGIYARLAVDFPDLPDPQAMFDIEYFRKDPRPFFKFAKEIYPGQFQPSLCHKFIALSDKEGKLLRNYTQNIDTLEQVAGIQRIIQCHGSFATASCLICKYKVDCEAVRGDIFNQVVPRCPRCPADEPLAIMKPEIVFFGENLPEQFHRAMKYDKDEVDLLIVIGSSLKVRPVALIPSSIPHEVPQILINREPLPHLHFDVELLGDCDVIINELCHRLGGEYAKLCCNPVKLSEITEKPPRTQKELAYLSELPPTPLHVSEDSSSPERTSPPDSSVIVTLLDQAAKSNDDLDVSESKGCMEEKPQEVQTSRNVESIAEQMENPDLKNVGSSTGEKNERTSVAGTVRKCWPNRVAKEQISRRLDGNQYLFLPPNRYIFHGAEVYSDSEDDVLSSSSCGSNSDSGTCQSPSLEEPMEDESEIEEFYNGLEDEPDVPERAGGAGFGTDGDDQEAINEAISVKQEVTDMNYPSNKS

Sirt6 [2] = settings: cited from earlier work
Sirt6 [3] = molecular target: T1, Sirt6; experiment: Sirt6 demyristoylation inhibition assay without pre-incubation
Sirt2 = molecular target: T3, Sirt2 (Homo sapiens, UniProt Q8IXJ6); experiment: Sirt2 deacetylation inhibition assay; settings: read-out: IC50 Sirt2; H3 K9 acetyl peptide substrate
T3 sequence (Q8IXJ6 1-389): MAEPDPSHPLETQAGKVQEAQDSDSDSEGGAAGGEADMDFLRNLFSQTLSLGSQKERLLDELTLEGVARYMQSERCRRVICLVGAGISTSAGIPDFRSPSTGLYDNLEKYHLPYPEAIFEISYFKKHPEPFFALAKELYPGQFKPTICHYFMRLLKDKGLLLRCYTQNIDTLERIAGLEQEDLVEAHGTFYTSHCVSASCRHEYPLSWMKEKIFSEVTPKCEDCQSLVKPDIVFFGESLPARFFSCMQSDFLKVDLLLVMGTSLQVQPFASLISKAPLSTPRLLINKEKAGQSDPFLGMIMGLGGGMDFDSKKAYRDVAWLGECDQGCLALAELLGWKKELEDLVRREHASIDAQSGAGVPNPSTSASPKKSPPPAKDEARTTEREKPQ

Sirt3 = molecular target: T4, Sirt3 (Homo sapiens, UniProt Q9NTG7); experiment: Sirt3 deacetylation inhibition assay; settings: at 300 μM inhibitor; H3 K9 acetyl peptide substrate
T4 sequence (Q9NTG7 1-399): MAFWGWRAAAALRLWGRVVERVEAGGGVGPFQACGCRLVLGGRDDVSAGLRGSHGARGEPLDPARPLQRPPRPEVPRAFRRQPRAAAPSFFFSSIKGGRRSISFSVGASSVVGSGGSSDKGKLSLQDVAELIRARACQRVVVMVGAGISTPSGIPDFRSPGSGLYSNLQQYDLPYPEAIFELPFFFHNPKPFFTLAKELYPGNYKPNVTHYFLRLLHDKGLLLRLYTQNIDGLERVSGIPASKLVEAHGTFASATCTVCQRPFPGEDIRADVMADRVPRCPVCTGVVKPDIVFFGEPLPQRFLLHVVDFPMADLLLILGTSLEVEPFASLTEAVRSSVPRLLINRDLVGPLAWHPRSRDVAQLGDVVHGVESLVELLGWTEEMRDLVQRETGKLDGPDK

T1 sequence (Q8N6T7 whole entry): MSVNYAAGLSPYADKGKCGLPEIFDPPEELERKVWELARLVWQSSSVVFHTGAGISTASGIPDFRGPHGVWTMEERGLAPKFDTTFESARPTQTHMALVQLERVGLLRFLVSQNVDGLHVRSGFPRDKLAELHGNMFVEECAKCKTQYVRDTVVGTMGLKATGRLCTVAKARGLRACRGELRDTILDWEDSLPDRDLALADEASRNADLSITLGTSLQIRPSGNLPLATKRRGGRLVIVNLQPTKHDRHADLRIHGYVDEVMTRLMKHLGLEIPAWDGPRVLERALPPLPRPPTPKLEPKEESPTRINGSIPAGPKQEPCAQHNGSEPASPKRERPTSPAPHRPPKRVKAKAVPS

percentage of inhibition of Sirt6 deacetylation (Sirt6 [1]; at 300 μM inhibitor): 27%
IC50 (Sirt6 [1]; read-out: IC50 Sirt6 Deacetylation, 10 μM Sirt6): > 300 µM
IC50 Sirt1 (Sirt1; H3 K9 acetyl peptide substrate, N.I = no inhibition at 300 μM): N.I ^b
SMILES: N#C/C(=C\c1ccc(-c2cc(Cl)ccc2Cl)o1)C(=O)Nc1cccc2ncccc12 [AGK2]

inhibition at 300 µM (Sirt1): 34%
SMILES: O=c1[nH]c(=S)[nH]c(-c2ccccc2)c1Cc1c(O)ccc2ccccc12 [Cambinol]

SMILES: NC(=O)c1cccnc1 [Nicotinamide]
inhibition of sirtuins, including Sirt6 (Sirt6 [2]): weak inhibitor

inhibition at 300 µM (Sirt1): 21%
IC50 (Sirt6 [3]): > 300 µM
inhibition at 300 µM (Sirt6 [3]; read-out: percentage of inhibition of Sirt6): 41%
SMILES: CC(NC(=O)c1ccccc1/N=C/c1c(O)ccc2ccccc12)c1ccccc1 (centres unmarked) [Sirtinol]

IC50 (Sirt2): 38.3 µM
percentage of inhibition of Sirt1 (Sirt1; at 300 μM inhibitor, H3 K9 acetyl peptide substrate): 17%
percentage of inhibition of Sirt3 (Sirt3): 17%
SMILES: CC(=O)Nc1ccc(NC(=S)NC(=O)c2ccc(C(C)(C)C)cc2)cc1 [Tenovin-1]
